Drawing on US8742158B2, “Protease inhibitors” (TaiMed Biologics, Inc., priority 2006, dated 2014), this text covers IC50, EC50 and Ki for 12 compounds.

For orientation: IC50 means the concentration needed to halve the response being measured. For orientation: EC50 means the concentration giving half of the maximal effect.

Structures are written as SMILES. Values joined by “and” are separate entries in the source; they are usually repeats but may differ in a detail not shown here. Identical values can stand only once. Like-named read-outs stand apart in the source and are kept apart here. Where only a bound is given, the exact number is not on record here.

For one assay, the target named is HIV-1 Protease (Human immunodeficiency virus type 1 group M subtype B (isolate HXB2) (HIV-1), UniProt P04585). The assay can be described thus: Enzymatic (FRET fluorometric) assay for determining the inhibition constant (Ki) of compounds targeting the HIV protease. The assay is classed as biochemical. To be noted: for IC50: read-out: IC50 ENZYME HIV-1 Protease. The source says:
Enzymatic Assay for Determining the Inhibition Constant (Ki) of Synthetic Compounds Targeting the HIV Protease
This is a fluorometric assay based on the cleavage by protease of a substrate carrying a donor group (EDANS) and an acceptor group (DABCYL) on each side of the cleavage site, interacting together through fluorescence resonance energy transfer (FRET) as described by Matayoshi et al. (Science 247:[…], 1990).
After calculation of Vo and Vi, the inhibition constant (Ki) of the compound is determined using the equation of Henderson:
where Vo=the enzyme's initial velocity
Vi=the enzyme velocity in the presence of the inhibitory compound,
[I]=inhibitor concentration, [S]=substrate concentration,
Km=Michaelis-Menten constant and Kiapp=apparent Ki
Graphs are traced and the Ki determined using GraphPad Prism software v. 3.0.

Another assay concerns HIV-1 viral strain NL4-3. The assay can be described thus: Anti-viral assay in vitro (MTT, infected MT-4 cells, six days). The assay is classed as cell-based. To be noted: Human immunodeficiency virus 1, NL43, MT4, 144 h, read-out: ANTI-HIV-EC50 VIRAL STRAIN NL4-3. The procedure: Anti-Viral and Cytotoxicity Assays In Vitro
• To evaluate the EC50 of our compounds, various drug concentrations are incubated with the infected cell for six days and then the metabolic activity of the cells is monitored by the MTT assay. (See A. J. Japour et al., Antimicrobial Agents and Chemotherapy, 37, 1095-1101, 1993 and R. Pauwels et al. Journal of Virological Methods, 20, 309-321, 1988) • We use the laboratory viral strain NL4.3 as wild type virus and the cell line used is MT-4 which is a T-cell line highly sensitive to HIV-1. We also use some WT clinical strains. To address the resistance issue we assay the inhibitors with NL4.3 mutants which are designed to be resistant to specific commercially available inhibitors. • The same MTT assay is used to evaluate the CCIC50 (cell culture of IC50) of our compounds except that the virus is omitted.

Setting [1] is: calculated Ki, read-out: KI-CALC ENZYME HIV-1 Protease.
Where [2] appears, read: KIGRAPHIC ENZYME HIV-1 Protease, Ki determined graphically, read-out: […] ENZYME HIV-1 Protease.

With `CC(C)CN([C@H](CO)CCCCNC(=O)[C@H](Cc1ccc2ccccc2c1)NCc1ccccn1)S(=O)(=O)c1ccc(N)cc1` [EX 56], on HIV-1 Protease, the IC50 amounted to 5.9 nM. Besides, the EC50 in the assay with HIV-1 viral strain NL4-3 was more than 50000 nM.

`CC(C)CN([C@H](CO)CCCCNC(=O)[C@H](CC1=C(Br)CCC=C1)NC(=O)N1CCOCC1)S(=O)(=O)c1ccc2c(c1)OCCO2` [EX 31]: the Ki on HIV-1 Protease (setting [1]) is less than 3.8 nM. Moreover, the half-inhibitory concentration (IC50) on HIV-1 Protease was 3.66 nM. Besides, the EC50 in the assay on HIV-1 viral strain NL4-3 worked out at 980 nM.

For the compound `CC(C)CN([C@H](CO)CCCCNC(=O)[C@@H](NC(=O)NCc1ccncc1)C(c1ccccc1)c1ccccc1)S(=O)(=O)c1ccc(N)cc1` [EX 62], the results for the Ki on HIV-1 Protease (setting [2]) and on HIV-1 Protease (setting [1]) were 0.443 nM and less than 3.8 nM, respectively. For the same compound, the half-maximal inhibitory concentration (IC50) on HIV-1 Protease worked out at 0.51 nM. In the assay on HIV-1 viral strain NL4-3, the EC50 stood at 170 nM.

For the compound `CC(C)CN([C@H](CO)CCCCNC(=O)C(Cc1ccccc1Br)NC(=O)c1ccncc1)S(=O)(=O)c1ccc(N)cc1` (stereo partly shown) [EX. 42], the Ki at HIV-1 Protease (setting [2]) was 0.182 nM; at HIV-1 Protease (setting [1]) it was less than 3.8 nM. Also, the IC50 at HIV-1 Protease amounted to 0.618 nM. Moreover, the EC50 in the assay with HIV-1 viral strain NL4-3 is 40 nM.

On to `COC(=O)N[C@@H](Cc1ccccc1F)C(=O)NCCCC[C@H](CO)N(CC(C)C)S(=O)(=O)c1ccc2c(c1)CCO2` [EX 13], for which the Ki at HIV-1 Protease (setting [1]) was 9.2 nM. Besides, the half-maximal effective concentration (EC50) in the assay with HIV-1 viral strain NL4-3 came to 2140 nM.

With `Cc1ccc(C(=O)N[C@@H](Cc2ccccc2Br)C(=O)NCCCC[C@@H](CO)N(CC(C)C)S(=O)(=O)c2ccc(N)cc2)cn1` [EX. 40], the Ki on HIV-1 Protease (setting [2]) was 0.217 nM; at HIV-1 Protease (setting [1]), less than 3.8 nM. For the same compound, the IC50 at HIV-1 Protease was 0.567 nM. Further, the EC50 with HIV-1 viral strain NL4-3 stood at 55 nM.

In the case of `Cc1ccc(C(=O)N[C@@H](Cc2ccccc2Br)C(=O)NCCCC[C@@H](CO)N(CC(C)C)S(=O)(=O)c2ccc(N)cc2)cc1O` [EX 37], the figures for the Ki on HIV-1 Protease (setting [2]) and on HIV-1 Protease (setting [1]) were 0.224 nM and less than 3.8 nM, respectively. The IC50 on HIV-1 Protease was 0.683 nM. The EC50 with HIV-1 viral strain NL4-3 stood at 60 nM.

As to `CC(C)CN([C@H](CO)CCCCNC(=O)[C@H](Cc1ccccc1Br)NC(=O)N1CCOCC1)S(=O)(=O)c1ccc2c(c1)CCO2` [EX 17], the Ki is 1 nM and 1.03 nM on HIV-1 Protease (setting [2]); less than 3.8 nM at HIV-1 Protease (setting [1]). Further, the concentration for half-maximal inhibition (IC50) on HIV-1 Protease worked out at 0.599 nM. Also, the concentration for a half-maximal effect (EC50) in the assay with HIV-1 viral strain NL4-3 was 665 nM.

On to `COC(=O)N[C@H](C(=O)NCCCC[C@H](CO)N(CC(C)C)S(=O)(=O)c1ccc2c(c1)N(C)CCO2)C(c1ccccc1)c1ccccc1` [EX 35], for which the Ki at HIV-1 Protease (setting [1]) is less than 3.8 nM. For the same compound, the IC50 at HIV-1 Protease turned out to be 3.01 nM. Also, in the assay on HIV-1 viral strain NL4-3, the half-maximal effective concentration (EC50) is more than 50000 nM.

With `Cc1ncccc1C(=O)N[C@@H](Cc1ccccc1Br)C(=O)NCCCC[C@@H](CO)N(CC(C)C)S(=O)(=O)c1ccc(N)cc1` [EX. 39], the Ki was 0.183 nM on HIV-1 Protease (setting [2]) and less than 3.8 nM at HIV-1 Protease (setting [1]). For the same compound, on HIV-1 Protease, the IC50 amounted to 0.58 nM. In addition, the 50% effective concentration (EC50) with HIV-1 viral strain NL4-3 was found to be 70 nM.

As to `CC(C)CN([C@H](CO)CCCCNC(=O)[C@H](Cc1ccccc1Br)NC(=O)c1cnccn1)S(=O)(=O)c1ccc(N)cc1` [EX. 44], on HIV-1 Protease (setting [2]), the Ki turned out to be 0.318 nM. The half-maximal inhibitory concentration (IC50) at HIV-1 Protease was 0.471 nM. Besides, in the assay with HIV-1 viral strain NL4-3, the 50% effective concentration (EC50) is 60 nM.

`Cc1c(O)cccc1C(=O)N[C@@H](Cc1ccccc1Br)C(=O)NCCCC[C@@H](CO)N(CC(C)C)S(=O)(=O)c1ccc(N)cc1` [EX 18]: the Ki at HIV-1 Protease (setting [2]) stood at 0.26 nM. The IC50 at HIV-1 Protease is 0.6 nM. Moreover, the EC50 in the assay on HIV-1 viral strain NL4-3 amounted to 136 nM.
